The values below come from article PMC7277748 (Biomedicines, 2020).

Read-outs that look alike come from different tables or passages of the source.

The target in data set [1] is T1, AChE-induced Aβ1–42 aggregation (Electrophorus electricus, UniProt O42275).
T1 construct: purchased
Put plainly: Inhibition of AChE-induced Aβ1–42 aggregation (thioflavin T assay). The format is biochemical. Conditions: for inhibitory effect on AChE-induced Aβ1–42 aggregation (in words): ThT-based fluorescence assay. Here is the method: Inhibition of AChE-induced Aβ1–42 aggregation was modified and measured using a thioflavin T (ThT) binding assay, as described elsewhere. Briefly, Aβ1–42 was dissolved in 50 mM phosphate buffer (pH 8.0). […] The fluorescence intensities were recorded, and the percentage of inhibition on aggregation was calculated by using the following equation: (1 – IFi/IFc) * 100%, in which IFi and IFc were the fluorescence of the AChE-induced Aβ1–42 aggregation group in the presence and absence of the test compounds, respectively, after subtracting the fluorescence of self Aβ1–42 aggregation and the background fluorescence of 5 μM ThT in the blank buffers. […] All determinations were carried out at least three times and in triplicate wells. […]

Another data set concerns the target Aβ1–42 (Homo sapiens, UniProt P05067). Put plainly: Inhibition of self-induced Aβ1–42 aggregation (thioflavin T assay). The data set is classed as biochemical. Conditions: ThT fluorescence, Aβ1–42, 48 h at 37 °C, mean ± SD; read-out: Self-Induced Aβ IC50. Here is the method:
Inhibition of self-induced Aβ1–42 aggregation was assayed, as described elsewhere. […] After incubation, the samples were mixed with […] glycine/NaOH buffer (pH 8.5) containing 5 μM ThT. […] The fluorescence intensities were recorded, and the percentage of inhibition on aggregation was calculated by using the following equation: (1 − IFi/IFc) * 100% in which IFi and IFc were the fluorescence intensities obtained for Aβ1-42 aggregation group in the presence and absence of the test compounds, respectively, after subtracting the background fluorescence of 5 μM ThT in the blank buffers. […] The experiment was done in independent triplicates. […]

Data set [2] has as its target T2, AChE from Electrophorus electricus (type VI-S) (Electrophorus electricus, UniProt O42275).
T2 construct: purchased
Put plainly: biochemical. Here is the method:
Acetylcholinesterase inhibitory activity was determined and modified from Ellman, as described elsewhere. […] The enzyme activity and the percentage inhibition were determined. […] All determinations were carried out at least three times and in triplicate wells.

In data set [3] the test system is SH-SY5Y cells. Put plainly: Neuroprotection against H2O2-induced cell damage (MTT). The data set is classed as cell-based, Human. Conditions: pre-incubation with 10 µM for 24 h, then 100 µM H2O2 for 2 h, compared to H2O2 treated group. Here is the method: (§1) Human neuroblastoma cells (SH-SY5Y) were cultured in Dulbecco’s Modified Eagle Medium (DMEM/Ha’s F12) containing 50 IU/mL penicillin, […] streptomycin, 2 mM L-glutamine, and 10% fetal bovine serum. Cells were maintained at 37 °C in a humidified incubator in an atmosphere of 5% CO2 For the assay, the SH-SY5Y cells, at a density of 5 × 10^5 cell/mL, were seeded in a 96-well plate and incubated for 48 h.
For neuroprotection against H2O2 investigation, the cells were pretreated with coumarin in various concentrations for 24 h. After removing unabsorbed test compounds by washing with phosphate buffer saline, the cells were treated with 100 µM H2O2 for 2 h to induce oxidative stress. Cell viability was determined by the MTT colorimetric method. The optical density of each well was measured at 550 nm. […] All data were expressed as a percentage of non-H2O2-treated groups (control group). The cell viability of the control group was expressed as 100%. The experiment was done in independent triplicates (4 wells/group).
The neuroprotective effect of phellopterin against oxidative stress was determined by colorimetric MTT assay in SH-SY5Y cells. Hydrogen peroxide at concentration 100 µM was used to induce oxidative damage. SH-SY5Y cells were pretreated with phellopterin at a concentration of 0.1 to 10 µM for 24 h prior to exposure to H2O2 for 2 h.

For data set [4], the system named is SH-SY5Y cells. Put plainly: Cytotoxicity in SH-SY5Y cells (MTT). The format is cell-based. The conditions noted are these: 0.1 to 10 µM for 24 h. Here is the method:
as §1
For cytotoxicity evaluation, the cells were treated with potential coumarin derivatives in various concentrations for 24 h. After that, cell viability was determined by staining the cells with 3-(4, 5-dimethyl-2-thiazolyl)-2, 5-diphenyl-2H-tetrazolium bromide, and MTT (5 mg/mL in PBS) for 2 h. The optical density of each well was measured at 550 nm in a […] Accureader M965 microplate reader.

Data set [5] has as its system SH-SY5Y cells. Put plainly: Neuroprotection against Aβ1–42 toxicity (MTT). Conditions: 0.1 to 10 µM with 25 µM Aβ1–42 for 24 h, compared to Aβ1–42-induced group. The format is cell-based, Human. Here is the method: as §1
For neuroprotection against Aβ1–42 toxicity, the Aβ1–42 preparation was modified from. Briefly, lyophilized Aβ1–42 was reconstituted in sterile water and keep at −80 °C until further use. […] Cell viability was determined by the MTT colorimetric method. The optical density of each well was measured at 550 nm in a […] Accureader M965 microplate reader. […] All data were expressed as a percentage of non-Aβ1–42-treated groups (control group). Cell viability of the control group was expressed as 100%. […]
Aβ has been implicated in the pathogenesis of AD. […] Therefore, the neuroprotective effect against Aβ1–42 toxicity of phellopterin was also determined in SH-SY5Y cells. Aβ1–42 at concentration 25 µM was treated with cells in the presence or absence of phellopterin at a concentration 0.1 to 10 µM for 24 h, and then the cell viability was determined by MTT assay. […]

[6] abbreviates: Ellman method, 0.2 Units/mL AChE, pH 7.4, mean ± SD, read-out: AChE assay IC50.

Chain of Aβ1–42 (P05067 672-713 limits assumed): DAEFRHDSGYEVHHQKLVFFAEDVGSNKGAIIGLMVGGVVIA
T1 sequence (O42275 24-633): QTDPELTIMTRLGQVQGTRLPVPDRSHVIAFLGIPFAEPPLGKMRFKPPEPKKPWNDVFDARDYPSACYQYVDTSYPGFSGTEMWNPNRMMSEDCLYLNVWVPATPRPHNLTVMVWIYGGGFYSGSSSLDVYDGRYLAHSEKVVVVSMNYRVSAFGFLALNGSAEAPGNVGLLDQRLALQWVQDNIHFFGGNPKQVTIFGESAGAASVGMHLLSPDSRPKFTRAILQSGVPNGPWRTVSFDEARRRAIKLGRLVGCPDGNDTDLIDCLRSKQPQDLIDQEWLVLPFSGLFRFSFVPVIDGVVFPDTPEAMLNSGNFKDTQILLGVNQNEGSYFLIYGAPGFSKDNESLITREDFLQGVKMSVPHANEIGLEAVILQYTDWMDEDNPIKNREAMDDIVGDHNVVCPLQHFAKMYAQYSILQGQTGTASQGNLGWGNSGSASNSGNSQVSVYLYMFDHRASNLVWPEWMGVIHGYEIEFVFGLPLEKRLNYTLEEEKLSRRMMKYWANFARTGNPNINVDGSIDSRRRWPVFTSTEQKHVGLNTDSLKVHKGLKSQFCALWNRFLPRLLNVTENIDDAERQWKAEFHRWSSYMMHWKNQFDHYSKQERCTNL
T2 sequence (O42275 24-633): as above

As to `COc1cc(OC)c2ccc(=O)oc2c1OCC=C(C)C` [Artanin, artanin], the IC50 – broadly, the point on the concentration scale where inhibition reaches its midpoint – in data set [1] stood at 98 ± 19 µM; at Aβ1–42, 124 ± 10 µM; in data set [2] (setting [6]) it was 51 ± 2 µM.

In the case of `COc1cc2oc(=O)ccc2c(OC)c1O` [Fraxinol, fraxinol], the results for the 50% inhibitory concentration (IC50) (in data set [1]; at Aβ1–42; in data set [2] (setting [6])) were above 500 µM, 209 ± 21 µM and 18 ± 7 µM, respectively. For the same compound, the “inhibitory effect on AChE-induced Aβ1–42 aggregation (in words)” value in data set [1] is given as “did not have inhibitory effects”.

Consider `COc1c2ccoc2c(OC)c2oc(=O)ccc12` [Isopimpinellin, isopimpinellin], for which the values for the concentration for half-maximal inhibition (IC50) (in data set [1]; at Aβ1–42; in data set [2]) were above 500 µM, 125 ± 13 µM and 41 ± 1 µM, respectively. Besides, in data set [1], the “inhibitory effect on AChE-induced Aβ1–42 aggregation (in words)” value was “did not have inhibitory effects”.

As for `COc1c2ccoc2c(OCC=C(C)C)c2oc(=O)ccc12` [Phellopterin, phellopterin], the IC50 in data set [1] was 97 ± 7 µM; on Aβ1–42, 95 ± 3 µM; in data set [2] (setting [6]) it was 38 ± 3 µM. The “effect on H2O2-induced cell damage (cell viability)” value in the data set with SH-SY5Y cells [3] is “significantly attenuated the H2O2-induced cell damage”. The “viability of SH-SY5Y cells (cytotoxicity)” value in the data set on SH-SY5Y cells [4] is on record as “no significant change”. Moreover, the “effect on Aβ1–42-induced cell damage (cell viability)” value in the data set with SH-SY5Y cells [5] is on record as “significantly increase cell viability”.

Turning to `COC1=CC(=O)c2cc(C)cc(-c3c(OC)cc(OC)c4ccc(=O)oc34)c2C1=O` [Toddacoumaquinone, toddacoumaquinone], the IC50 in data set [1] is 72 ± 5 µM; on Aβ1–42, 145 ± 2 µM; in data set [2] (setting [6]), 46 ± 12 µM.

As for `COc1cc2oc(=O)ccc2c(OC)c1CC=C(C)C` [Toddaculin, toddaculin], the IC50 in data set [1] came to 232 ± 10 µM; at Aβ1–42, 143 ± 4 µM; in data set [2] (setting [6]) it was 53 ± 9 µM.

Regarding `COc1cc(OC)c2ccc(=O)oc2c1/C=C/C(C)=O` [Toddalenone, toddalenone], the IC50 in data set [1] was determined as 211 ± 29 µM; on Aβ1–42 it was 99 ± 1 µM; in data set [2] (setting [6]), 40 ± 4 µM.

Take `COc1cc2oc(=O)ccc2c(OC)c1C[C@@H](O)C(C)(C)O` [Toddalolactone, toddalolactone]: the results for the IC50 (in data set [1]; on Aβ1–42; in data set [2] (setting [6])) were 105 ± 9 µM, 220 ± 1 µM and 49 ± 5 µM, respectively.

Regarding `COc1cc2oc(=O)ccc2c(OC)c1CC(=O)C(C)C` [Toddanone, toddanone], the IC50 in data set [1] is 110 ± 2 µM; at Aβ1–42, 76 ± 1 µM; in data set [2] (setting [6]), 46 ± 3 µM.
